{
  "source": "paper PMC7722985",
  "about": "(Biochemistry, 2015)",
  "key": {"p300 Taz2": {"tested_on": "p300 Taz2", "conditions": "cited from earlier work"}, "[1]": {"tested_on": "Taz2 domain of p300 (A1723-K1812/C1738A, C1746A, C1789A, C1790A)", "assay": "ITC binding of p53", "conditions": "for Ka: ITC, 20 mM Tris-HCl (pH 7.2), 100 mM NaCl, 2 mM β-mercaptoethanol, 35 °C, 1:1 binding model, performed at least twice, ND = No binding was detected"}, "CBP Taz2": {"tested_on": "CBP Taz2", "conditions": "α1, α2, α3 surface of Taz2; cited from earlier work"}, "Taz2 domain of p300 [2]": {"tested_on": "Taz2 domain of p300", "assay": "pH dependence of p53 binding to Taz2 by ITC", "conditions": "between pH 5.9 and 6.8; ITC at 35 °C; 100 mM Tris, 100 mM Bis-Tris, 100 mM acetate"}, "Taz2 R1731A": {"tested_on": "Taz2 R1731A", "assay": "ITC binding of p53", "conditions": "ITC at 35 °C"}, "Taz2 domain of p300 [3]": {"tested_on": "Taz2 domain of p300", "assay": "Salt dependence of p53", "format": "binding", "conditions": "ITC at 35 °C; similar pH values; 100 mM acetate as opposed to 100 mM NaCl"}, "Taz2 S1741D": {"tested_on": "Taz2 S1741D", "assay": "ITC binding of p53", "conditions": "ITC at 35 °C"}, "[4]": {"conditions": "ITC at 35 °C, pH 7.2, 100 mM NaCl"}},
  "data": [
    {"substance": "W53A/F54A double mutation of p53(25–65): W53A/F54A double mutation of p53(25–65)", "values": [
      {"measurement": "Taz2 binding of double mutant", "setting": "p300 Taz2", "result": "abrogated Taz2 binding"}
    ]},
    {"substance": "p53 D48N: p53(35–59) with mutation of Asp48 to asparagine", "values": [
      {"measurement": "Ka", "setting": "[1]", "result": "(0.60 ± 0.08) × 10^6 M^−1"}
    ]},
    {"substance": "p53 E51Q: p53(35–59) with mutation of Glu51 to glutamine", "values": [
      {"measurement": "Ka", "setting": "[1]", "result": "(0.56 ± 0.13) × 10^6 M^−1"}
    ]},
    {"substance": "p53 F54S: p53(35–59) with mutation of Phe54 to serine", "values": [
      {"measurement": "reduction in the association constant compared with wild-type p53 peptide", "setting": "[1]; [4]", "result": 55, "unit": "%"},
      {"measurement": "Ka", "setting": "[1]", "result": "(0.53 ± 0.09) × 10^6 M^−1"}
    ]},
    {"substance": "p53 I50A: p53(35–59) mutant peptide I50A", "values": [
      {"measurement": "weaker binding to Taz2 than wild-type", "setting": "[1]; [4]", "result": 3, "unit": "fold"},
      {"measurement": "Ka", "setting": "[1]", "result": "(0.31 ± 0.01) × 10^6 M^−1"}
    ]},
    {"substance": "p53 L45A: p53(35–59) mutant peptide L45A", "values": [
      {"measurement": "Ka", "setting": "[1]", "result": "(0.91 ± 0.04) × 10^6 M^−1"}
    ]},
    {"substance": "p53 M40A: p53(35–59) mutant peptide M40A", "values": [
      {"measurement": "Ka", "setting": "[1]", "result": "(1.32 ± 0.05) × 10^6 M^−1"}
    ]},
    {"substance": "p53 Q52E: p53(35–59) mutant peptide Q52E", "values": [
      {"measurement": "Ka", "setting": "[1]", "result": "(1.29 ± 0.35) × 10^6 M^−1"}
    ]},
    {"substance": "p53 T55A: p53(35–59) mutant peptide T55A", "values": [
      {"measurement": "Ka", "setting": "[1]", "result": "(1.16 ± 0.10) × 10^6 M^−1"}
    ]},
    {"substance": "p53 TAD1: first transactivation subdomain of p53 (residues 1–39)", "values": [
      {"measurement": "binding to CBP Taz2", "setting": "CBP Taz2", "result": "high affinity"},
      {"measurement": "effect of phosphorylation on Taz2 binding", "setting": "p300 Taz2", "result": "increased its affinity for p300 Taz2"}
    ]},
    {"substance": "p53 TAD2: second transactivation subdomain of p53 (residues 40–61)", "values": [
      {"measurement": "binding to CBP Taz2", "setting": "CBP Taz2", "result": "high affinity"},
      {"measurement": "effect of phosphorylation on Taz2 binding", "setting": "p300 Taz2", "result": "unaffected by phosphorylation"},
      {"measurement": "affinity for Taz2", "setting": "p300 Taz2; p53 TAD2 compared with p53 TAD1", "result": "tighter than that of p53 TAD1"}
    ]},
    {"substance": "p53 W53Q: p53(35–59) with Trp53 mutated to glutamine (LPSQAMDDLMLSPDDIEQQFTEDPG)", "values": [
      {"measurement": "detectable binding to Taz2", "setting": "[1]; ITC at 35 °C", "result": "loss of detectable binding"}
    ]},
    {"substance": "p53 pThr55: p53(35–59) phosphorylated at Thr55", "values": [
      {"measurement": "Ka", "setting": "[1]", "result": "(1.30 ± 0.05) × 10^6 M^−1"}
    ]},
    {"substance": "p53(1–39): p53 TAD1, residues 1–39 [reference compound]", "values": [
      {"measurement": "pH dependence of affinity for Taz2, pH 5.9 to 6.8", "setting": "Taz2 domain of p300 [2]", "result": "not dependent upon pH between pH 5.9 and 6.8"}
    ]},
    {"substance": "p53(1–57): p53(1–57), both TAD subdomains", "values": [
      {"measurement": "overall affinity for Taz2 relative to single subdomains", "setting": "p300 Taz2", "result": "overall affinity higher than that of either interaction alone"}
    ]},
    {"substance": "p53(35–59): p53 TAD2 peptide, residues 35–59, synthesized by solid-phase method or expressed as GST fusion", "values": [
      {"measurement": "reduction in binding affinity vs wild-type Taz2", "setting": "Taz2 R1731A", "result": 3, "unit": "fold"},
      {"measurement": "effect of phosphorylation on Taz2 binding", "setting": "p300 Taz2", "result": "does not significantly affect binding"},
      {"measurement": "affinity in 100 mM acetate vs 100 mM NaCl", "setting": "Taz2 domain of p300 [3]", "result": "significantly higher"},
      {"measurement": "effect of Taz2 mutation on binding", "setting": "Taz2 S1741D", "result": "did not affect binding"}
    ]}
  ]
}
